Measurements as given in patent publication US20130207041A1, “FLUORESCENT COMPOUND, MAKING METHOD, AND FLUORESCENT RESIN COMPOSITION” (Shin-Etsu Chemical Co., Ltd., priority 2012, published 2013).
Values after ≈ are worked out from the molar mass of the structure shown.

How the values were obtained:
[1] = Solubility in transparent silicone resin SIM-360 matrix; settings: room temperature, stirring; judged dissolved when solution became transparent
[2] = in ethanol

With `CCCCCCC1(CCCCCC)c2cc(-c3ccc(-c4ccccc4)cc3)ccc2-c2ccc(-c3ccc(-c4ccccc4)cc3)cc21` [Compound #5, 2,7-Bis(Biphenyl)-9,9′-Dihexylfluorene, reference compound] the “solubility in silicone resin SIM-360 matrix” value (shortened to “solubility”) [1] was “could not be dissolved”.

In the case of `C[Si](C)(C)O[Si](C)(CCCC1(CCC[Si](C)(O[Si](C)(C)C)O[Si](C)(C)C)c2cc(-c3ccc(-c4ccccc4)cc3)ccc2-c2ccc(-c3ccc(-c4ccccc4)cc3)cc21)O[Si](C)(C)C` [Compound #2, 2,7-bis(biphenyl)-9,9′-di-[3-(1-trimethylsiloxy-1,3,3,3-tetramethyldisiloxan-1-yl)propyl]-fluorene], the “maximum absorption peak wavelength” value [2] is reported as 338 nm, the molar absorption coefficient [2] is reported as 7.07×10^4 and the “solubility” value [1] is reported as 1.3 mM (≈ 1290 µg/mL).

For `C[Si](C)(C)O[Si](C)(C)O[Si](C)(C)O[Si](C)(C)O[Si](C)(C)CCCC1(CCC[Si](C)(C)O[Si](C)(C)O[Si](C)(C)O[Si](C)(C)O[Si](C)(C)C)c2cc(-c3ccc(-c4ccccc4)cc3)ccc2-c2ccc(-c3ccc(-c4ccccc4)cc3)cc21` [Compound #4, 2,7-bis(biphenyl)-9,9′-di-[3-(undecamethylpentasiloxan-1-yl)propyl]fluorene], the “maximum absorption peak wavelength” value [2] was 338 nm, the molar absorption coefficient [2] was 6.81×10^4 and the “solubility” value [1] was 6.0 mM (≈ 7750 µg/mL).
